Reference: patent publication US10800752B2, “Substituted naphtho[2,3-b]furans as water-soluble prodrugs for preventing and/or treating cancer” (BOSTON BIOMEDICAL, INC., priority 2015, dated 2020)

Legend:
[1] = Evaluation of a conversion rate to 2-acetylnaphtho[2,3-b]furan-4,9-dione in human plasma; assay type: in vitro ADME; conditions: Human plasma, 1 umol/L, 37° C., incubation time 120 min
Procedure, shortened: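 Compounds at 1 umol/L incubated at 37° C in human plasma, CD1 mouse plasma or pH 7.4 phosphate buffer, sampled up to 120 minutes. After acidified acetonitrile protein removal, parent loss and conversion to 2-acetylnaphtho[2,3-b]furan-4,9-dione measured by LC-MS (ESI positive).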

[2] = Evaluation of a conversion rate to 2-acetylnaphtho[2,3-b]furan-4,9-dione in CD1 mouse plasma; assay type: in vitro ADME; conditions: CD1 mouse plasma, 1 umol/L, 37° C., incubation time 120 min
Procedure, shortened: (§1)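 Compounds at 1 umol/L were incubated at 37° C in human plasma, CD1 mouse plasma or pH 7.4 phosphate buffer, sampled up to 120 minutes, acid/acetonitrile-deproteinised and analysed by LC-MS (ESI positive). Conversion (%) derived from the peak area ratio of the active form to phenytoin internal standard.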

[3] = Evaluation of a conversion rate to 2-acetylnaphtho[2,3-b]furan-4,9-dione in pH 7.4 phosphate buffer solution; assay type: physicochemical; conditions: Phosphate buffer solution (pH 7.4), 1 umol/L, 37° C., incubation time 120 min
Procedure, shortened: as §1

[4] = Solution stability test; assay type: physicochemical; conditions: for % Residual ratio: 25 umol/L
Method: For Example 6, Example 11, and Example 22, the stability in each pH was measured. Test compounds at a concentration of 25 umol/L in respective buffer solutions prepared at pH 2.0, 3.0, 5.0, 7.4, and 9.0 were allowed to stand at 25° C. After 0, 3, 6, 9, 12, and 24 hours, they were measured with HPLC.
The buffer solutions used at respective pHs are as described below. pH 2.0: 50 mmol/L glycine buffer solution pH 3.0: 50 mmol/L citrate buffer solution pH 5.0: 50 mmol/L citrate buffer solution pH 7.4: 50 mmol/L phosphate buffer solution pH 9.0: 50 mmol/L glycine buffer solution
The measurement condition of HPLC is as described below.
Column temperature: 40° C.
Mobile phase: A: 0.1% trifluoroacetic acid-containing water

[5] = Solubility test; conditions: 50 mmol/L glycine buffer solution (pH 2.0), room temperature, 24 hours shaking
Method: A water-soluble prodrug was added into 50 mmol/L glycine buffer solution (pH 2.0). After shaking at room temperature for 24 hours, the mixture was filtered through a membrane filter, and then the filtrate was measured with HPLC.
The measurement condition of HPLC is as described below. HPLC condition column: Acquity UPLC BEH C18, 1.7 um, 50×2.1 mm

[6] = Pharmacokinetics test, intravenous administration; conditions: for Plasma Compound Concentration: Activated form 1 in plasma, 10.5 mg/kg (i.v.)
Method: For water-soluble prodrugs described in the EXAMPLES, the concentration of 2-acetylnaphtho[2,3-b]furan-4,9-dione (Activated form 1) in plasma was measured. Animal species, an administration method, a method of making standard solutions, and a method of measuring the concentration in plasma are as described below.
Animal: Seven-week-aged male CD1 (ICR) mice were used as an experimental animal.
Administration method: A test substance was weighed, and then dissolved in 50 mmol/L glycine buffered saline (pH 2.0) to produce an administration solution. The body weight of a mouse was measured, and the prepared administration solution was intravenously administered.
Blood collecting method: Heparin was added to a blood-collecting vessel, and blood was collected from a mouse. To the obtained blood, 46% of Citric acid was added in 1% volume. It was then centrifuged to obtain plasma. To the collected plasma, 1 mol/L HCl was added in 10% volume to produce a plasma sample. A sample obtained by adding 10% volume of 1 mol/L HCl to blank plasma was used as a blank sample.
Making of a standard solution: One mg of a test sample was weighed, and dissolved in 10 mL of acetonitrile using a measuring flask to make a standard solution of 100 ug/mL.
Measurement of the concentration in plasma: One hundred ug/mL of the standard solution was diluted in 50% acetonitrile solution to make calibration curve samples of target concentrations. Twenty uL of a blank sample was added to 18 uL of the calibration curve sample to make a plasma calibration curve sample. Eighteen uL of 50% acetonitrile solution was added to 20 uL of the administered plasma sample to make a sample for plasma analysis. One hundred uL of acetonitrile (containing 1% volume of 10 mol/L HCl) containing an internal standard was added to the plasma calibration curve sample and the sample for plasma analysis, respectively. It should be noted that phenytoin was used as the internal standard and its concentration was prepared in 100 nmol/L. 10 uL of each sample was analyzed with LC-MS. A calibration curve was made from a value (peak ratio) of the peak area of a test substance in MS divided by the peak area of the internal standard, and the concentrations of plasma calibration curve samples. The concentration in a sample was calculated from the peak ratio of each sample and the calibration curve.

COC(=O)[C@@H](N)CCNC(=O)Oc1c2ccccc2c(OC(=O)NCC[C@H](N)C(=O)OC)c2oc(C(C)=O)cc12.Cl.Cl [Example 11]
% Measurement value (conversion rate to 2-acetylnaphtho[2,3-b]furan-4,9-dione) [1]: 100%
% Measurement value (conversion rate to 2-acetylnaphtho[2,3-b]furan-4,9-dione) [2]: 100%
% Measurement value (conversion rate to 2-acetylnaphtho[2,3-b]furan-4,9-dione) [3]: 58%
stability in solution (in words) ([4]; pH 2.0, 25° C.): very stable
% Residual ratio ([4]; pH 2.0, 25° C., 0 hr): 100%
% Residual ratio ([4]; pH 2.0, 25° C., 3 hr): 100%
% Residual ratio ([4]; pH 2.0, 25° C., 6 hr): 102%
% Residual ratio ([4]; pH 2.0, 25° C., 9 hr): 102%
% Residual ratio ([4]; pH 2.0, 25° C., 12 hr): 104%
% Residual ratio ([4]; pH 2.0, 25° C., 24 hr): 102%
stability in solution (in words) ([4]; pH 3.0, 25° C.): sufficient stability
% Residual ratio ([4]; pH 3.0, 25° C., 0 hr): 100%
% Residual ratio ([4]; pH 3.0, 25° C., 3 hr): 98.6%
% Residual ratio ([4]; pH 3.0, 25° C., 6 hr): 97.3%
% Residual ratio ([4]; pH 3.0, 25° C., 9 hr): 98.8%
% Residual ratio ([4]; pH 3.0, 25° C., 12 hr): 94.5%
% Residual ratio ([4]; pH 3.0, 25° C., 24 hr): 90.7%
% Residual ratio ([4]; pH 5.0, 25° C., 0 hr): 100%
% Residual ratio ([4]; pH 5.0, 25° C., 3 hr): 36.0%
% Residual ratio ([4]; pH 5.0, 25° C., 6 hr): 14.0%
% Residual ratio ([4]; pH 5.0, 25° C., 9 hr): 5.2%
% Residual ratio ([4]; pH 5.0, 25° C., 12 hr): 0%
% Residual ratio ([4]; pH 5.0, 25° C., 24 hr): 0%
% Residual ratio ([4]; pH 7.4, 25° C., 0 hr): 100%
% Residual ratio ([4]; pH 7.4, 25° C., 3 hr): 0%
% Residual ratio ([4]; pH 7.4, 25° C., 6 hr): 0%
% Residual ratio ([4]; pH 7.4, 25° C., 9 hr): 0%
% Residual ratio ([4]; pH 7.4, 25° C., 12 hr): 0%
% Residual ratio ([4]; pH 7.4, 25° C., 24 hr): 0%
% Residual ratio ([4]; pH 9.0, 25° C., 0 hr): 100%
% Residual ratio ([4]; pH 9.0, 25° C., 3 hr): 0%
% Residual ratio ([4]; pH 9.0, 25° C., 6 hr): 0%
% Residual ratio ([4]; pH 9.0, 25° C., 9 hr): 0%
% Residual ratio ([4]; pH 9.0, 25° C., 12 hr): 0%
% Residual ratio ([4]; pH 9.0, 25° C., 24 hr): 0%
Solubility in pH 2.0 buffer solution [5]: >5.0 mg/mL
Plasma Compound Concentration ([6]; 0.083 hr, animal 1): 3740 nM
Plasma Compound Concentration ([6]; 0.083 hr, animal 2): 4410 nM
Plasma Compound Concentration ([6]; 0.083 hr, animal 3): 5290 nM
Plasma Compound Concentration ([6]; 0.083 hr, mean): 4480 nM
Plasma Compound Concentration ([6]; 0.5 hr, animal 1): 690 nM
Plasma Compound Concentration ([6]; 0.5 hr, animal 2): 1170 nM
Plasma Compound Concentration ([6]; 0.5 hr, animal 3): 1390 nM
Plasma Compound Concentration ([6]; 0.5 hr, mean): 1080 nM
Plasma Compound Concentration ([6]; 1.0 hr, animal 1): 420 nM
Plasma Compound Concentration ([6]; 1.0 hr, animal 2): 620 nM
Plasma Compound Concentration ([6]; 1.0 hr, animal 3): 630 nM
Plasma Compound Concentration ([6]; 1.0 hr, mean): 560 nM
Plasma Compound Concentration ([6]; 2.0 hr, animal 1): 360 nM
Plasma Compound Concentration ([6]; 2.0 hr, animal 2): 280 nM
Plasma Compound Concentration ([6]; 2.0 hr, animal 3): 80 nM
Plasma Compound Concentration ([6]; 2.0 hr, mean): 240 nM
production of 2-acetylnaphtho[2,3-b]furan-4,9-dione (Activated form 1) (in words) ([6]; intravenously administered to mice): rapidly produced
